From ChEMBL document CHEMBL4257491, “Discovery of indoleamine 2,3-dioxygenase inhibitors using machine learning based virtual screening” (Medchemcomm, 2018)
Active and inactive are the calls of the source. The calls are words filed in the database; no cut-off is given here.

Experiments:
[1] = target: T1, Indoleamine 2,3-dioxygenase 1 (Homo sapiens, UniProt P14902); assay: Inhibition of human HuH7 cell derived IDO1 expressed in Escherichia coli BL21 codon plus using L-tryptophan as substrate measured after 1 hr by fluorescence assay
Target sequence in this assay (P14902 whole entry): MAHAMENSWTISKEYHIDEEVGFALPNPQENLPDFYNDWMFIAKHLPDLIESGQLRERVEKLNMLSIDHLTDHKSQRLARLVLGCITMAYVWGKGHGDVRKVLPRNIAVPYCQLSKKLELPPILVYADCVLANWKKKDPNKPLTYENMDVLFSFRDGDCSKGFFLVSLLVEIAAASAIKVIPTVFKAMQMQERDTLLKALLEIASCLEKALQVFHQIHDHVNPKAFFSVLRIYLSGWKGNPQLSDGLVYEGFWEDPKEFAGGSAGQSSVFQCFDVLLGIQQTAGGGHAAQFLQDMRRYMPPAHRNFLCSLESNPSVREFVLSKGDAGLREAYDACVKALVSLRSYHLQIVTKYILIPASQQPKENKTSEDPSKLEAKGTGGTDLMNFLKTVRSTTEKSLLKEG

[2] = target: T1, Indoleamine 2,3-dioxygenase 1; assay: Inhibition of IDO1 in IFNgamma-stimulated human HuH7 cells at 1 uM using L-tryptophan as substrate measured after 24 hrs relative to control
Target sequence in this assay (P14902 whole entry, looked up): as the sequence (P14902 whole entry) above

[3] = target: T1, Indoleamine 2,3-dioxygenase 1; assay: Binding affinity to human HuH7 cell derived IDO1 expressed in Escherichia coli BL21 codon plus up to 10 uM by surface plasmon resonance analysis
Target sequence in this assay (P14902 whole entry, looked up): as the sequence (P14902 whole entry) above

[4] = Cytotoxicity against human HuH7 cells assessed as survival rate at 1 uM after 24 hrs by MTT assay relative to control; type: cell-based, Huh-7; details: read-out: Survival
[5] = target: T1, Indoleamine 2,3-dioxygenase 1; assay: Inhibition of IDO1 in IFNgamma-stimulated human HuH7 cells at 10 uM using L-tryptophan as substrate measured after 24 hrs relative to control
Target sequence in this assay (P14902 whole entry, looked up): as the sequence (P14902 whole entry) above

[6] = Cytotoxicity against human HuH7 cells assessed as survival rate at 10 uM after 24 hrs by MTT assay relative to control; type: cell-based, Huh-7; details: read-out: Survival

Row | Compound | IC50 [1] | inhibition [2] | Activity [3] | viability at 24 h, 1 µM [4] | inhibition [5] | viability at 24 h, 10 µM [6]
1 | Cc1cccc2c3c(ccc12)C1=C(C(=O)C3=O)C(C)CO1 (configuration not stated) | 1.3 µM | 54.3% | Active | 94.7% | – | –
2 | Cc1coc2c1C(=O)C(=O)c1c-2ccc2c1C=CCC2(C)C | 4.68 µM | 66.7% | Active | 93% | – | –
3 | Cc1c(-c2c(C)c(O)c3ccccc3c2O)oc2c1C(=O)C(=O)c1c-2ccc2c1CCCC2(C)C | 4.1 µM | – | Active | – | 21% | 97.1%
